Reference: patent US20240329033A1, “MonoMac-1 Cells Expressing CD16 and CD163” (Temple University-Of The Commonwealth System of Higher …, priority 2016, published 2024)

Tests used:
Assay type in all cases: cell-based, human
MONO-MAC-1 cells = assay: Flow cytometry of CD163, CD16 and CD4 expression in differentiated MONO-MAC-1 cells; details: for expression of CD163+ / expression of CD16+: added for 24 hours to MonoMac-1 treated with PMA+DEX+MCSF+LPS; for expression of CD163+: FIG. 6A; for expression of CD16+: FIG. 6B
Experimental: MONO-MAC-1 cells were cultured at 37° C. in a humidified atmosphere containing 5% CO2 using RPM1 1640 medium supplemented with 10% heat-inactivated fetal bovine serum (FBS, Sigma) and 1% of stable glutamine, 1 mM sodium pyruvic acid and 1×MEM non-essential amino acids were added. Cells were seeded at a density of 0.5×10^6 cells/ml and were sub cultured upon reaching 1× 10^6 cells/ml. Medium was changed every 2 to 3 days. […] Data were analyzed with GraphPad Prism (version 6) soft-ware. Flow cytometric measurements were performed using four colors FACSCalibur (Becton Dickinson).

MCP-1 = MCP-1 concentration in MonoMac-1 culture; details: FIG. 8
[1] = system: tryptophan catabolism/IDO activity in MonoMac-1; assay: Tryptophan catabolism/IDO activity (kynurenine/tryptophan in cell culture supernatant) in MonoMac-1; details: for kynurenine/tryptophan ratio: cell culture supernatant, FIG. 7C
From the text: A major mechanism for inflammation and disease pathogenesis involves tryptophan catabolism via the kynurenine pathway. As such we evaluated cytokine inducers of IDO enzyme induction, a limiting step in the kynurenine pathway.
TNF α and IFN γ induce tryptophan catabolism/IDO activity as determined by increase in the kynurenine/tryptophan ratio in cell culture supernatant, in response to TNF alpha and IFN gamma treatment (FIG. 7).

[2] = induction: PMA 20 ng/ml ± LPS 10 ng/ml 3 days, then MCSF 5 ng/ml + DEX 200 ng/ml 4 days, FIG. 1A

Row | Molecule | expression of CD163+ monocytes (MONO-MAC-1 cells; [2]) | MCP-1 concentration (MCP-1) | kynurenine/tryptophan ratio [1] | expression of CD163+ (MONO-MAC-1 cells) | expression of CD16+ (MONO-MAC-1 cells) | further results
1 | lipopolysaccharide [LPS, reference compound] | has the most effect | – | – | – | – | percentage of CD16+CD163+ monocytes (MONO-MAC-1 cells; induction: PMA ± LPS 3 days, then DEX+MCSF 4 days, FIG. 2, FIG. 3): required to have maximum effect
2 | TNF α | – | increase MCP-1 | increase | further increase the expression | further increase the expression | –
3 | FC(F)(F)c1ccc(CNc2ccc(Cc3c[nH]c4ncc(Cl)cc34)cn2)cn1 [PLX3397, reference compound] | – | – | – | – | – | expression of CD16+ monocytes (MONO-MAC-1 cells; antagonist 500 nM added after PMA/LPS 72 h and 4 days MCSF+DEX, FIG. 4A): reduction in expression; expression of CD4+ monocytes (MONO-MAC-1 cells; antagonist 500 nM added after PMA/LPS 72 h and 4 days MCSF+DEX, FIG. 4B): reduction in expression; expression of CD163+ monocytes (MONO-MAC-1 cells; antagonist 500 nM added after PMA/LPS 72 h and 4 days MCSF+DEX, FIG. 4C): significantly decreases expression
4 | macrophage colony-stimulating factor (protein, UniProt P09603 33-554, looked up) Macrophage colony-stimulating …: EEVSEYCSHMIGSGHLQSLQRLIDSQMETSCQITFEFVDQEQLKDPVCYLKKAFLLVQDIMEDTMRFRDNTPNAIAIVQLQELSLRLKSCFTKDYEEHDKACVRTFYETPLQLLEKVKNVFNETKNLLDKDWNIFSKNCNNSFAECSSQDVVTKPDCNCLYPKAIPSSDPASVSPHQPLAPSMAPVAGLTWEDSEGTEGSSLLPGEQPLHTVDPGSAKQRPPRSTCQSFEPPETPVVKDSTIGGSPQPRPSVGAFNPGMEDILDSAMGTNWVPEEASGEASEIPVPQGTELSPSRPGGGSMQTEPARPSNFLSASSPLPASAKGQQPADVTGTALPRVGPVRPTGQDWNHTPQKTDHPSALLRDPPEPGSPRISSLRPQGLSNPSTLSAQPQLSRSHSSGSVLPLGELEGRRSTRDRRSPAEPEGGPASEGAARPLPRFNSVPLTDTGHERQSEGSFSPQLQESVFHLLVPSVILVLLAVGGLLFYRWRRRSHQEPQRADSPLEQPEGSPLTQDDRQVELPV | promotes expression | – | – | – | – | –
5 | IFN γ: cytokine inducer of IDO enzyme induction (protein, UniProt P01579 24-161, looked up) Interferon gamma: QDPYVKEAENLKKYFNAGHSDVADNGTLFLGILKNWKEESDRKIMQSQIVSFYFKLFKNFKDDQSIQKSVETIKEDMNVKFFNSNKKKRDDFEKLTNYSVTDLNVQRKAIHELIQVMAELSPAAKTGKRKRSQMLFRG | – | increase MCP-1 | increase | further increase the expression | further increase the expression | tryptophan concentration ([1]; added to the combination of PMA, LPS, MCSF and DEX, FIG. 7A): decreased; kynurenine concentration ([1]; added to the combination of PMA, LPS, MCSF and DEX, FIG. 7B): increased
